Measurements from US11160767B2, “4,4′-trans-dihydroxystilbene for use in treating cancer” (The George Washington University, a Congressionally …, priority 2017, dated 2021).

Key:
U2OS = experiment: In vitro cytotoxicity (SRB assay), U2OS; type: cell-based; settings: Homo sapiens, 72 hours
Experimental: (§1) Cell lines and cell culture. HCT116, U205, PANC-1, MDA-231 cell lines were purchased from the American Type Culture Collection (Rockville, Md., US). Cells were cultured in the DMEM medium (Lonza, Basel, Switzerland) containing 10% fetal bovine serum (Gibco, Grand Island, N.Y., US), 100 Units/ml penicillin, 100 Units/mL streptomycin, […] L-glutamine (Gibco, Grand Island, N.Y., US) at 37° C. in a humidified atmosphere with 5% CO2.
(§2) In vitro cytotoxicity assays. […] SRB assay (Vichai and Kirtikara, 2006) was performed and the absorbance at 510 nm was read with a plate reader. The proliferation rate was calculated according to the Manufacturer's instruction. The IC50 value for each compound was determined from dose-effect relationship using the CompuSyn software (version 1.0.1; CompuSyn, Inc, Paramus, N.J.) (Chou, 2006). Cell proliferating doubling time was monitored over a period of 72 hours.

MDA-231/GFP = experiment: In vitro cytotoxicity (SRB assay), MDA-231/GFP; type: cell-based; settings: Homo sapiens, MDA-MB-231, 72 hours
Experimental: as §1, §2

PANC-1 = experiment: In vitro cytotoxicity (SRB assay), PANC-1; type: cell-based; settings: Homo sapiens, 72 hours
Experimental: as §1, §2

HCT116 = experiment: In vitro cytotoxicity (SRB assay), HCT116; type: cell-based; settings: Homo sapiens, HCT-116, 72 hours
Experimental: as §1, §2

[1] = test system: HCT116 cells, U2OS cells, MDA-231/GFP cells, and PANC-1 cells; experiment: Cytotoxicity across the four cancer cell lines (SAR summary); type: cell-based; settings: range over four cell lines
Experimental: In vitro cytotoxicity assays. Cells growing in the Log phase were treated with various compounds at different concentrations (generally 0.137 to 100 μM) for 72 hours at 37° C. SRB assay (Vichai and Kirtikara, 2006) was performed and the absorbance at 510 nm was read with a plate reader. The proliferation rate was calculated according to the Manufacturer's instruction. The IC50 value for each compound was determined from dose-effect relationship using the CompuSyn software (version 1.0.1; CompuSyn, Inc, Paramus, N.J.) (Chou, 2006). Cell proliferating doubling time was monitored over a period of 72 hours.
Based on identification of resveratrol as a lead compound in the drug screening assays, the anti-cancer activity of synthetic resveratrol analogs (FIG. 2) was next investigated and compared to resveratrol using HCT116 cells, U2OS cells, MDA-231/GFP cells, and PANC-1 cells.
The structure activity relationship (SAR) of the derivatives of resveratrol were considered.

HCT116 cells [2] = experiment: DNA fiber assay; type: cell-based, human; settings: added 2 hours prior to labeling
Experimental: Thus, the effect of DHS on DNA replication and cell cycle progression was investigated. Replication fork speeds were examined by DNA fiber assay (FIG. 7A). Briefly, DHS, hydroxyurea (Hu), or Aphidicolin (Aph) was added to HCT116 cells 2 hours prior to labeling of DNA with iododeoxyuridine (IdU) and/or chlorodeoxyuridine (CldU).

HCT116 xenograft tumor = HCT116 xenograft tumor model; type: in vivo, nude mice; settings: Day 38; DHS 50 mg/kg i.p. 14 consecutive days; cisplatin 8 mg/kg i.p.
Experimental: Xenograft mouse models. […] In xenograft studies, HCT116 (3×10^6 cells) and IGROV3/CP2 (5×10^6 cells) suspended in 100 μl of phosphate buffered saline (PBS, pH 7.4) were injected subcutaneously into the lower flank of the mice. Testing compounds were dissolved in DMSO/Tween 80/saline (10:10:80; v/v/v) buffer and were used to treat animals through intraperitoneal (i.p.) injection. […] The body weight of animals was measured throughout the study. Tumor diameters were measured with digital calipers, and the tumor volume in mm^3 was calculated by the formula: Volume=(width)^2×length/2.
HCT116 cells (5×10^6) were injected subcutaneously in nude mice and grown to approximately 100 mm^3 in volume. […] To study the preclinical toxicity of DHS, samples of hearts, livers, spleens, lung, and kidneys were collected on Day 38 and sections were stained for histological examination.

RRM1 = molecular target: T1, RRM1 (Homo sapiens, UniProt P23921); experiment: Thermal shift assay in HCT116 cells, RRM1; type: cell-based
T1 construct: endogenous in cells; host or cells: HCT116
Experimental: (§3) To investigate binding of DHS to RRM1 and RRM2, a thermal shift assay was performed in HCT116 cells treated with DMSO (vehicle), resveratrol, DHS, gemcitabine, or hydroxyurea (Hu). Gemcitabine is known to bind RRM1 (Plunkett et al., 1995 and Chen et al., 2011), and Hu has been reported to bind RRM2 (Thelander et al., 1985). […] DHS stabilized RRM2 protein in a dose responsive manner (5 to 20 μM DHS; FIG. 11A). To rule out nonspecific effects of DHS on RRM2, an in vitro thermal shift assay was conducted. Purified RRM1 and RRM2 were mixed and then incubated with DHS or Hu for 4 hours before performing the assay.

HCT116 cells [3] = experiment: dNTP amount in treated cells; type: cell-based, human
Description: The effect of DHS on dNTP synthesis was investigated by measuring the amount of dNTPs in DHS-treated HCT116 cells.

RRM2 = molecular target: T2, RRM2 (Homo sapiens, UniProt P31350); experiment: Thermal shift assay in HCT116 cells, RRM2; type: cell-based
T2 construct: endogenous in cells; host or cells: HCT116
T2 sequence (P31350 1-389): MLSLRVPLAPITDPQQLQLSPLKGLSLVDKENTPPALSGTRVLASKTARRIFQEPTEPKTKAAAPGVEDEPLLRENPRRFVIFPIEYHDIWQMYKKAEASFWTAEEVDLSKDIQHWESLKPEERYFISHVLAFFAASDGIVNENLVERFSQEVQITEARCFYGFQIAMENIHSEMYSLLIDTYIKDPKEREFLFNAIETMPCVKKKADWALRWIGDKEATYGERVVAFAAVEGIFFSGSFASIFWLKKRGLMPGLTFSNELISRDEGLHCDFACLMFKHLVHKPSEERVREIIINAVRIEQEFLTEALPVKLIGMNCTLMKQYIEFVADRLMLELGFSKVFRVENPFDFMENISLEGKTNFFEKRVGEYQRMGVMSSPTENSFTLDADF
Experimental: as §3

HCT116 cells [4] = experiment: Cell-cycle assay; type: cell-based, human; settings: 10 μM
Experimental: A cell-cycle assay was conducted to study whether DHS would affect cell-cycle progression.

And-1 = experiment: High-throughput screening, HEK-293T-And-1-Luc cells; type: cell-based; settings: 48 hours
Experimental: High-throughput drug screening was performed using a HEK-293T-And-1-Luc cell line expressing Luciferase fused to And-1 (FIG. 1A). The level of cellular Luciferase activity was reflective of the level of And-1 protein. […] In the drug screening assays, cells were treated with testing drugs for 48 hours.

T1 sequence (P23921 whole entry): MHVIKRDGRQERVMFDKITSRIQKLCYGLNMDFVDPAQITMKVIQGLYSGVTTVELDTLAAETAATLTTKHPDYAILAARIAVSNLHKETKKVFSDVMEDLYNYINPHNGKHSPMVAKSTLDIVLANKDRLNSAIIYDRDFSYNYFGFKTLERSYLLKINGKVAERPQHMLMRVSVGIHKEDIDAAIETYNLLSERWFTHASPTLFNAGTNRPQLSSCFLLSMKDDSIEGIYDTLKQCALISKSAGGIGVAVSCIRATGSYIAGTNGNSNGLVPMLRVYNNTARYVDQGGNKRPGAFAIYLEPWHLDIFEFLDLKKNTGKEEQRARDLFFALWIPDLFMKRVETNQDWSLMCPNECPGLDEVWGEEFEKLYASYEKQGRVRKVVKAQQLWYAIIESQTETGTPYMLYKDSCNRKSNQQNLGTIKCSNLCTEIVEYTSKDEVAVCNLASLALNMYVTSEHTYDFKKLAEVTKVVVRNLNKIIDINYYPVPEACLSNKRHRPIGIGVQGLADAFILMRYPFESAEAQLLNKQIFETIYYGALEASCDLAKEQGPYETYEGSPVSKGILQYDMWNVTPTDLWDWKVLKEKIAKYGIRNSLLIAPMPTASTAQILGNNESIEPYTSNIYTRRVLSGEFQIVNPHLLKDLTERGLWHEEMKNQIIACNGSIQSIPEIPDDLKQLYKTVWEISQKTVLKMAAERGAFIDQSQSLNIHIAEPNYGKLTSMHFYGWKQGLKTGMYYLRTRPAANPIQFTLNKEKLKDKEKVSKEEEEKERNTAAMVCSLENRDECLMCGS

RRM1 levels in thermal shift assay (binding) (RRM1)	RRM2 levels in thermal shift assay (binding) (RRM2)	SMILES	IC50 (U2OS) [µM]	IC50 (MDA-231/GFP) [µM]	IC50 (PANC-1) [µM]	IC50 (HCT116) [µM]	IC50 [1] [µM]	DNA replication stalling (HCT116 cells [2])	Reduction in tumor volume as compared with the vehicle control group (HCT116 xenograft tumor) [%]	dNTP synthesis (HCT116 cells [3])	Effect on cell-cycle progression (HCT116 cells [4])	And-1 protein level (luciferase activity) (And-1)
		Oc1ccc(/C=C/C=C/c2ccc(O)cc2)cc1 [#1, 4,4′-((1E,3E)-buta-1,3-diene-1,4-diyl)diphenol]	1.1 ± 1.05	70.7 ± 16.7	308 ± 86.3	6.48 ± 3.98						
		Oc1ccc(/C=C/C=C/C=C/c2ccc(O)cc2)cc1 [#2, 4,4′-((1E,3E,5E)-hexa-1,3,5-triene-1,6-dyl)diphenol]	0.37 ± 0.28	57.9 ± 15.4	123 ± 93.4	11.7 ± 6.46						
		Oc1ccc(/C=C/c2ccccc2)cc1 [#3, (E)-4-styrylphenol]	23.6 ± 3.83	45.1 ± 13.9	109 ± 63.7	32.2 ± 5.88	23.6 to 109					
		Oc1ccc(/C=C/c2ccccc2)cc1O [#4, (E)-4-styrylbenzene-1,2-diol]	33.6 ± 28	13.7 ± 2.98	57.1 ± 44.7	50.2 ± 9.72	13.7 to 57.1					
		Oc1ccc(/C=C/C=C/c2ccccc2)cc1O [#5, 4-((1E,3E)-4-phenylbuta-1,3-dien-1-yl)benzene-1,2-diol]	4.66 ± 2.67	5.47 ± 4.02	18.4 ± 8.87	9.5 ± 3.64						
		C[C@@]1(CO)[C@H](O)CC[C@@]2(C)[C@H]1CC[C@H]1C[C@@H]3C[C@@]12CC[C@]3(O)CO [Aph, Aphidicolin, reference compound]						caused DNA replication stalling				
		N.N.[Cl][Pt][Cl] [Cisplatin, reference compound]							~50			
robust levels of RRM1		Nc1ccn([C@@H]2O[C@H](CO)[C@@H](O)C2(F)F)c(=O)n1 [Gemcitabine, reference compound]	0.51 ± 0.17	0.03 ± 0.04	7.43 ± 5.24	0.046 ± 0.041						
	robust levels of RRM2	NC(=O)NO [Hydroxyurea, reference compound]	262 ± 181	704	2400 ± 485	306 ± 61.1		caused DNA replication stalling		did not		
		Oc1ccc(/C=C/c2cc(O)cc(O)c2)cc1 [Resveratrol, 3,5,4′-trihydroxy-trans-stilbene, reference compound]	30.2 ± 4.22	42.4 ± 4.9	82 ± 24.4	24.5 ± 3.32	24.5 to 82			did not	did not change the cell-cycle population	causing down-regulation of And-1 protein
